The source of these data is patent publication US5688787A, “Substituted β-lactam compounds useful as hypochlesterolemic agents and processes for the preparation thereof” (priority 1996, dated 1997).

Where two headings read alike, the source gives them in different places.

The target of one assay is T1, ACAT (Rattus norvegicus, UniProt Q7TQM4).
T1 construct: Rat liver microsomes are used as the source of ACAT; from tissue; host or cells: rat liver microsomes
T1 sequence (Q7TQM4 1-524): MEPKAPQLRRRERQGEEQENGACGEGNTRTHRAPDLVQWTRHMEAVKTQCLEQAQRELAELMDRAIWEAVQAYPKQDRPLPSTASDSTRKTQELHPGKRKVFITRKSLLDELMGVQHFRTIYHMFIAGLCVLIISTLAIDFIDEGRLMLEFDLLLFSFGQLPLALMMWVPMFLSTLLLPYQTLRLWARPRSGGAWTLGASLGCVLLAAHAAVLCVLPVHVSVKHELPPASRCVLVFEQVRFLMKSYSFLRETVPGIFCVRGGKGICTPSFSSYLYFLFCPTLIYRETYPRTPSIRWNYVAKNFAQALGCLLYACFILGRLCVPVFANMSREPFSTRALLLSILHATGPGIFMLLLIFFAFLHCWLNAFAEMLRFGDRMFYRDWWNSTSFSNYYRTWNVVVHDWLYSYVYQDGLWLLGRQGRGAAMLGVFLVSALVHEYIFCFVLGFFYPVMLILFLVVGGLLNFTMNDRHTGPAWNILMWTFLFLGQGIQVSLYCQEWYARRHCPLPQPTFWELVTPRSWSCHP
Kind of assay: ACAT Assay (in vitro). The class given is biochemical. The conditions noted are these: for inhibition at 10 µM: Conc. 10 µM, negative = apparent stimulation, read-out: ACAT (in vitro) % Inhib.

A further assay concerns Hyperlipidemic Hamster. Kind of assay: In Vivo Assay of Hypolipidemic Agents Using the Hyperlipidemic Hamster. The conditions noted are these: Mesocricetus auratus, po, 168 h, 7 days, percent change versus control, negative = lowering; for change in vivo at 50 mg/kg: 50 mg/kg once daily oral; for change in vivo at 25 mg/kg: 25 mg/kg once daily oral. Summed up:
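Hamsters, six per group, were fed chow with 0.5% cholesterol for seven days and given compound once daily by oral gavage in corn oil; controls received corn oil alone. Plasma (EDTA) and liver lipids were measured at sacrifice. Values are percent change versus control, so negative means lowering.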

The mark [1] stands for this setting: read-out: % Reduction (in vivo) Cholest. Esters.
[2] abbreviates: read-out: % Reduction (in vivo) Serum Cholest.

In the case of `COc1ccc(N2C(=O)[C@@](Cc3ccccc3)(c3ccccc3)[C@@H]2c2ccccc2)cc1` (relative stereo) [Example 1X], the inhibition at 10 µM at ACAT was found to be 9%. Moreover, the change in vivo at 50 mg/kg in the assay with Hyperlipidemic Hamster (setting [1]) was 0%; in the assay on Hyperlipidemic Hamster (setting [2]), -12%.
The like results for `CC[C@@]1(CCCc2ccccc2)C(=O)N(c2ccc(OC)cc2)[C@H]1c1ccc(OC)cc1` (relative stereo) [Example 3O] were, in that order, -28%, 0% and 0%.
The like results for `CCCCCCCCCC[C@@H]1C(=O)N(c2ccc(OC)cc2)[C@@H]1c1ccc(OC)cc1` (relative stereo) [Example 1CL] were, in that order, 89%, -18% and 0%.
For the compound `COc1ccc(N2C(=O)[C@H](CCCc3ccccc3)[C@H]2c2ccc3c(c2)OCO3)cc1` (relative stereo) [Example 5Q], on ACAT, the inhibition at 10 µM was -36%. In addition, the change in vivo at 50 mg/kg was -19% in the assay on Hyperlipidemic Hamster (setting [1]) and 0% in the assay on Hyperlipidemic Hamster (setting [2]).
In the same order, the values of `CC[C@@]1(c2ccccc2)C(=O)N(c2ccc(OC)cc2)[C@H]1c1ccc(OC)cc1` (relative stereo) [Example 1CK] are -12%, -28% and 0%.
The like results for `COc1ccc([C@@H]2[C@H](OCCc3ccccc3)C(=O)N2c2ccc(OC)cc2)cc1` (relative stereo) [Example 7AE] were, in that order, -95%, -10% and -17%.
`CCOc1ccc([C@@H]2[C@@H](CCCc3ccccc3)C(=O)N2c2ccc(OC)cc2)cc1` (relative stereo) [Example 5S]: on ACAT, the inhibition at 10 µM was determined as 28%. For the same compound, the change in vivo at 50 mg/kg is -98% with Hyperlipidemic Hamster (setting [1]) and -52% in the assay with Hyperlipidemic Hamster (setting [2]).
Consider `CC[C@@H]1C(=O)N(c2ccc(OC)cc2)[C@@H]1c1ccc(OC)cc1` (relative stereo) [Example 1AL], for which the inhibition at 10 µM at ACAT is -43%. Also, the change in vivo at 50 mg/kg in the assay on Hyperlipidemic Hamster (setting [1]) and with Hyperlipidemic Hamster (setting [2]) was 0% in each case.
Turning to `COc1ccc([C@@H]2[C@@H](CCOc3ccccc3)C(=O)N2c2ccc(OC)cc2)cc1` (relative stereo) [Example 5X], the inhibition at 10 µM at ACAT turned out to be 38%. Further, the change in vivo at 50 mg/kg in the assay with Hyperlipidemic Hamster (setting [1]) was -39%; with Hyperlipidemic Hamster (setting [2]) it was 0%.
The IC50 is the concentration that inhibits the measured activity by half. Read a low IC50 as inhibition by little substance. Take `COc1ccc(N2C(=O)[C@H](CCCc3ccccc3)[C@H]2c2ccc(CO[Si](C)(C)C(C)(C)C)cc2)cc1` (relative stereo) [Example 1AS]: on ACAT, the IC50 amounted to 1000 nM and the inhibition at 10 µM is 83%. Moreover, the change in vivo at 50 mg/kg with Hyperlipidemic Hamster (setting [1]) was -19%. In addition, the change in vivo at 50 mg/kg in the assay on Hyperlipidemic Hamster (setting [2]) came out at 0%.
Take `COc1ccc([C@@H]2N(c3ccc(OC)cc3)C(=O)[C@@]2(Cc2ccccc2)c2ccccc2)cc1` (relative stereo) [Example 7AH]: the inhibition at 10 µM at ACAT was -5%. In addition, the change in vivo at 50 mg/kg with Hyperlipidemic Hamster (setting [1]) and in the assay with Hyperlipidemic Hamster (setting [2]) was 16% each time.
`COc1ccc(N2C(=O)[C@@H](CCCc3ccccc3)[C@H]2c2ccc([S+](C)[O-])cc2)cc1` (relative stereo) [Example 17]: the inhibition at 10 µM on ACAT is 25%. In addition, the change in vivo at 50 mg/kg in the assay on Hyperlipidemic Hamster (setting [1]) is -52%; in the assay on Hyperlipidemic Hamster (setting [2]), -17%.
The like results for `COc1ccc(N2C(=O)[C@@H](CCc3ccccc3)[C@H]2c2ccccc2)cc1` (relative stereo) [Example 1D] were, in that order, 39%, 0% and 0%.
Take `COc1ccc(N2C(=O)[C@](CCCc3ccccc3)(c3ccccc3)[C@@H]2c2ccccc2)cc1` (relative stereo) [Example 3B]: the inhibition at 10 µM at ACAT turned out to be 84%. In addition, the change in vivo at 50 mg/kg with Hyperlipidemic Hamster (setting [1]) is -16%; with Hyperlipidemic Hamster (setting [2]), -11%.
The like results for `CCCCCCCCCC[C@]1(CC)C(=O)N(c2ccc(OC)cc2)[C@H]1c1ccccc1` (stereo in doubt) [Example 3Q] were, in that order, 3%, 0% and -6%.
Regarding `COc1ccc(N2C(=O)[C@](C)(CCc3ccccc3)[C@@H]2c2ccccc2)cc1` (relative stereo) [Example 3I], the inhibition at 10 µM on ACAT came to 43%. Also, the change in vivo at 50 mg/kg is 0% in the assay on Hyperlipidemic Hamster (setting [1]) and -9% in the assay on Hyperlipidemic Hamster (setting [2]).
In the same order, the values of `COc1ccc(N2C(=O)[C@H](CCCc3ccccc3)[C@H]2c2ccco2)cc1` (relative stereo) [Example 1BD] are 17%, -25% and 0%.
`CC[C@]1(CCc2ccccc2)C(=O)N(c2ccc(OC)cc2)[C@H]1c1ccccc1` (relative stereo) [Example 3H]: on ACAT, the inhibition at 10 µM was 66%. Moreover, the change in vivo at 50 mg/kg with Hyperlipidemic Hamster (setting [1]) is 31%; in the assay with Hyperlipidemic Hamster (setting [2]) it was -10%.
Regarding `CC[C@@]1(CCCCc2ccccc2)C(=O)N(c2ccc(OC)cc2)[C@H]1c1ccccc1` (relative stereo) [Example 3L], the inhibition at 10 µM on ACAT was 53%. Moreover, the change in vivo at 25 mg/kg in the assay on Hyperlipidemic Hamster (setting [1]) and with Hyperlipidemic Hamster (setting [2]) was 0% throughout.
Turning to `CC[C@@H]1C(=O)N(c2ccc(OC)cc2)[C@H]1c1ccc(N)cc1` (relative stereo) [Example 8A], the inhibition at 10 µM at ACAT is -17%. For the same compound, the change in vivo at 50 mg/kg with Hyperlipidemic Hamster (setting [1]) and with Hyperlipidemic Hamster (setting [2]) was 0% throughout.
As for `COc1ccc(N2C(=O)[C@@H](CCCc3ccccc3)[C@@H]2c2cccc(OC(F)(F)F)c2)cc1` (relative stereo) [Example 1BL], the inhibition at 10 µM at ACAT was 42%. In addition, the figures for the change in vivo at 50 mg/kg in the assay on Hyperlipidemic Hamster (setting [1]) and in the assay with Hyperlipidemic Hamster (setting [2]) were 0% and -10%, respectively.
In the case of `COc1ccc(N2C(=O)[C@H](CCCc3ccccc3)[C@H]2c2ccc(CN3CCOCC3)cc2)cc1` (relative stereo) [Example 19], the inhibition at 10 µM at ACAT is 24%. For the same compound, the change in vivo at 50 mg/kg was -51% with Hyperlipidemic Hamster (setting [1]) and -20% in the assay with Hyperlipidemic Hamster (setting [2]).
In the same order, the values of `COc1ccc(N2C(=O)[C@H](CCCc3ccccc3)[C@H]2c2cccc(OC)c2)cc1` (relative stereo) [Example 5C] are 21%, -24% and -17%.
In the same order, the values of `COc1ccc(N2C(=O)[C@H](CCCc3ccccc3)[C@@H]2c2ccc3c(c2)OCO3)cc1` (relative stereo) [Example 1CN] are -28%, 0% and 0%.
`COc1ccc([C@@H]2[C@H](CCCc3ccccc3)C(=O)N2c2ccc(O)cc2)cc1` (relative stereo) [Example 15B]: at ACAT, the inhibition at 10 µM was -55%. Further, the change in vivo at 50 mg/kg is -18% in the assay on Hyperlipidemic Hamster (setting [1]) and 0% in the assay on Hyperlipidemic Hamster (setting [2]).
Consider `COc1ccc(N2C(=O)[C@@H](CCCc3ccccc3)[C@H]2c2ccc(CN3CCOCC3)cc2)cc1` (relative stereo) [Example 19A], for which the inhibition at 10 µM on ACAT turned out to be 64%. The change in vivo at 50 mg/kg was -34% with Hyperlipidemic Hamster (setting [1]) and -20% in the assay with Hyperlipidemic Hamster (setting [2]).
Consider `CC[C@@H]1C(=O)N(c2ccc(OC)cc2)[C@H]1C=Cc1ccccc1` (relative stereo) [Example 1AG], for which, on ACAT, the inhibition at 10 µM was -3%. Further, the change in vivo at 50 mg/kg was -29% with Hyperlipidemic Hamster (setting [1]) and -16% in the assay on Hyperlipidemic Hamster (setting [2]).
